The values below come from patent US20250087329A1, “PERSONALISED RECOMMENDED DAILY INTAKE FOR NUTRIENTS BASED ON INDIVIDUAL GENETIC RISK SCORES” (SOCIETE DES PRODUITS NESTLE S.A., priority 2021, published 2025).

A short description of one data set: Dose-response algorithm for vitamin B12 including polygenic risk score effects (Arivale cohort). Set-up: species or system human. As to conditions: 14-18 risk alleles vs 0-4 risk alleles. The method, then: A linear regression was performed for the selected SNPs against vitamin B12 in the Arivale cohort. The Arivale cohort consists of individuals over 18 years of age who between 2015 and 2019 self-enrolled in a now closed scientific wellness company. Briefly, majority of Arivale participants (˜80%) were residents of Washington or California when in the program (for further information on the Arivale cohort see Wilmanski et al. 2021). Methyl-malonic acid (MMA) was measured as a biomarker for blood B12 concentrations. MMA is inversely correlated with vitamin B12 blood levels. The distribution of the PRS was normally distributed and the average increase in MMA per risk allele was 3.4 units (Table 5) corresponding to a decrease of approximately […] vitamin B12 (cobalamin) per risk allele.
To estimate individual vitamin B12 intake needs, a genetic term that sums the effects of all risk alleles present in an individual was added to the dose-response model in the form: […]
In the case of cobalamin [vitamin B12], the “intake needed by highest risk score group relative to low risk group to reach the same blood levels” value was “five times”.

Still in this data set, the particulars now being: sufficiency for 97% of the high risk group.
Take cobalamin [vitamin B12]: the “daily vitamin B12 intake needed for vitamin B12 sufficiency” value is reported as “higher than 1500 mcg/day”.

Experiment in another data set: not given
As to conditions: Person; daily intake; cited from earlier work.
Regarding `[Ca+2]` [Calcium], the “UL (tolerable upper intake level)” value was 2500 mg.
`Cl` [Chloride]: the “UL (tolerable upper intake level)” value is reported as 3600 mg.
With `C[N+](C)(C)CCO` [Choline], the “UL (tolerable upper intake level)” value was 3500 mg.
With `F` [Fluoride], the “UL (tolerable upper intake level)” value is listed as 10 mg.
For the compound `[Mg+2]` [Magnesium], the “UL (tolerable upper intake level)” value was 350 mg.
Turning to `[Mn+2]` [Manganese], the “UL (tolerable upper intake level)” value is listed as 11 mg.
In the case of `O=C(O)c1cccnc1` [Niacin (B3), Niacin], the “UL (tolerable upper intake level)” value was 35 mg.
With `[P]` [Phosphorus], the “UL (tolerable upper intake level)” value is 4000 mg.
For `[Se]` [Selenium], the “UL (tolerable upper intake level)” value was 0.4 mg.
Regarding `[Na]` [Sodium], the “UL (tolerable upper intake level)” value was 2300 mg.
Consider `[Zn]` [Zinc], for which the “UL (tolerable upper intake level)” value is given as 40 mg.
Turning to `Cc1c(C)c2c(c(C)c1O)CC[C@@](C)(CCC[C@H](C)CCC[C@H](C)CCCC(C)C)O2` [α-tocopherol (Vitamin E), α-tocopherol], the “UL (tolerable upper intake level)” value was 1000 mg.
